From US9573954B2, “Pyrazolopyrimidine compounds” (University Health Network, priority 2012, dated 2017)
pIC50: −log10 of the molar value. Where two headings read alike, the source gives them in different places.

What was measured:
human TTK = target: T1, human TTK (Homo sapiens, UniProt P33981); experiment: TTK inhibition assay (indirect ELISA); assay type: biochemical
T1 construct: Active TTK was purchased from Invitrogen as an amino terminal GST fusion of full length human TTK; purchased Invitrogen
T1 sequence (P33981 1-857): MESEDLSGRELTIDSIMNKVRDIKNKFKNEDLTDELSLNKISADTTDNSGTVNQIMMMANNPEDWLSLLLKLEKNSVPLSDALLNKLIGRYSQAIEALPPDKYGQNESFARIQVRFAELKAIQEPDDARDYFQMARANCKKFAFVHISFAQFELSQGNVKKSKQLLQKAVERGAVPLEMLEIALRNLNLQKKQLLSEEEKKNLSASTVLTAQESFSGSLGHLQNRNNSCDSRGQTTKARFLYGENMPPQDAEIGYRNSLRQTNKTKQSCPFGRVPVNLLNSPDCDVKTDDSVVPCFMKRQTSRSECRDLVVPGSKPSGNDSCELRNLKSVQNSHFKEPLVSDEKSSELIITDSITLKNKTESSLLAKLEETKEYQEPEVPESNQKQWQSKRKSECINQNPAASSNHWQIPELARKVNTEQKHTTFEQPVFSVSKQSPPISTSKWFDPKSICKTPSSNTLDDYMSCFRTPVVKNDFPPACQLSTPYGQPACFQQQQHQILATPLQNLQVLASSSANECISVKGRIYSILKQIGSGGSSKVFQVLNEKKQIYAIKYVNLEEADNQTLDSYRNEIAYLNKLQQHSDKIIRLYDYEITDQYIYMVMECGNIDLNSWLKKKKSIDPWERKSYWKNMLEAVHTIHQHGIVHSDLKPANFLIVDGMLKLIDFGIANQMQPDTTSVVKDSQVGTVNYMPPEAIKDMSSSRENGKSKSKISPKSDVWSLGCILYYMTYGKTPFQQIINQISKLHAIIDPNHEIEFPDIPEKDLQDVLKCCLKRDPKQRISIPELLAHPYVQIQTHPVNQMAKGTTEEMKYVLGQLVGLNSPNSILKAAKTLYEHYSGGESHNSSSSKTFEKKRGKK
Procedure, shortened: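 Activity detected by indirect ELISA after compounds sat with full-length GST-TTK for 5 min prior to starting the reaction with ATP. IC50 came from a four-parameter logistic curve of % inhibition, calculated against background and uninhibited control wells.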

[1] = test system: colon cancer cells (HCT116); experiment: Cancer cell line growth inhibition, Sulforhodamine B assay, HCT116; assay type: cell-based; settings: Homo sapiens, HCT-116, HCT116 colon cancer cell line; read-out: Cancer Cell Line GI50 Range HCT116
Procedure, shortened: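 GI50 is calculated from growth inhibition relative to DMSO controls, using TCA-fixed, SRB-stained protein mass read at 570 nm. Compound, 10 nM–50 μM final in 10% FBS DMEM, was applied for 5 days to HCT116 cells that had been plated 24 h before at 1000–4000/well.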

[2] = test system: breast cancer cells (MDA-MB-468); experiment: Cancer cell line growth inhibition, Sulforhodamine B assay, MDA-MB-468; assay type: cell-based; settings: Homo sapiens, MDA-MB-468, MDA-MB-468 breast cancer cell line; read-out: Cancer Cell Line GI50 Range MDA-MB-468
Procedure, shortened: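 Sulforhodamine B staining (TCA-fixed, read at 570 nm) estimates cell mass after 5-day compound treatment of MDA-MB-468 cells, final concentrations 10 nM to 50 μM in 10% FBS DMEM. GI50 derived from growth inhibition versus DMSO controls.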

[3] = test system: ovarian cancer cells (OVCAR-3); experiment: Cancer cell line growth inhibition, Sulforhodamine B assay, OVCAR-3; assay type: cell-based; settings: Homo sapiens, OVCAR-3, OVCAR-3 ovarian cancer cell line; read-out: Cancer Cell Line GI50 Range OVCAR-3
Procedure, shortened: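 OVCAR-3 cells were seeded 24 h before compound addition, then exposed for 5 days to final concentrations of 10 nM to 50 μM in DMEM with 10% FBS. Growth was measured by TCA fixation and sulforhodamine B staining with absorbance at 570 nm. Inhibition was relative to DMSO-only cells, and GI50 came from curve fitting.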

[4] = test system: Ovarian 2393A tumor initiating cells; experiment: Tumor-initiating cell growth inhibition, Alamar Blue assay, ovarian TICs; assay type: cell-based; settings: 144 h; Ovarian 2393A TICs, 6 days; read-out: Tumor Initiating Cell GI50 Range Ovarian 2393A
From the text: (§1) Non-tissue or tissue cultured treated T-75 flask and 96-well plates were purchased from VWR. Vitamin B-27 supplement, MEM NEAA (minimum essential medium non essential amino acids), sodium pyruvate, L-glutamine, N2 supplement, penicillin-streptomycin and fungizone/amphotericin B were obtained from Invitrogen. Lipid mixture, heparin and EGF were purchased from Sigma; bFGF from BD Biosciences. Tumor Initiating Cells (TICs) from colon were routinely maintained using non-tissue cultured treated T-75 flasks in DMEM:F12 medium containing 0.2XB-27 supplement, 4 ug/ml heparin, 1×MEM NEAA, 1×sodium pyruvate, 1 mM glutamine, 10 pg/ul bFGF, 20 pg/ul EGF, 1× N2 supplement, lipid mixture, penicillin-streptomycin and fungizone/amphotericin B. Ovarian TICs were routinely maintained using tissue cultured treated T-75 flasks in DMEM:F12 medium containing IXB-27 supplement, 4 ug/ml heparin, 20 pg/ul bFGF, 20 pg/ul EGF and penicillin-streptomycin.
(§2) Compounds described herein were dissolved in DMSO and further diluted in cell culture medium for GI50 determination. Colon TICs were trypsinized and seeded into non-tissue cultured treated 96-well plates with 4,000 cells/well. After 24 h, compound was added into the cell culture at different concentrations, and the final concentration of DMSO was adjusted to 0.1%. Cells were then cultured at 37° C. for 9 days. Ovarian TICs were trypsinized and seeded into tissue cultured treated 96-well plates with 1,000 cells/well. After 24 h, compound was added into the cell culture at different concentrations, and the final concentration of DMSO was adjusted to 0.1%. Cells were then cultured at 37° C. for 6 days. Cell viability was assessed by Alamar Blue assay: 10 ul of Alamar Blue was added into each well. After 4 hours incubation at 37° C., fluorescence was recorded at excitation 544 and emission 590. GI50 (Growth inhibition) was calculated using GraphPad Prism 4.0 software.
(§3) In Table 1 below, GI50 value ranges for compound examples against TICs (Colon 12 and Ovarian 2393A) are given.

[5] = test system: Colon 12 tumor initiating cells; experiment: Tumor-initiating cell growth inhibition, Alamar Blue assay, colon TICs; assay type: cell-based; settings: 216 h; Colon 12 TICs, 9 days; read-out: Tumor Initiating Cell GI50 Range Colon 12
From the text: as §1, §2, §3

[6] = 16 μM ATP (Sigma cat# A7699), read-out: TTK IC50 Range (denoted with an asterisk)
[7] = 100 μM ATP, read-out: TTK IC50 Range

pIC50 (human TTK; [6])	GI50 [1] [nM]	GI50 [2] [nM]	GI50 [3] [nM]	GI50 [4] [nM]	GI50 [5] [nM]	pIC50 (human TTK; [7])	SMILES
> 7.00	> 500	> 500	> 500	100 to 500	100 to 500		O=C(NC1CC1)c1ccc(-c2cnn3c(NCC4CCOCC4)nc(Oc4ccccc4)nc23)cc1F [Example C7]
> 7.00	≤ 100	≤ 100	≤ 100	≤ 100	≤ 100		Cc1cc(-c2cnn3c(NC[C@H]4CC[C@@H](O)CC4)nc(Oc4cccc(F)c4)nc23)ccc1C(=O)NC1CC1 [Example C24]
> 7.00	≤ 100	100 to 500	100 to 500	100 to 500	≤ 100		COc1ccc(Oc2nc(NCC3CCOCC3)n3ncc(-c4ccc(C(=O)NC5CC5)c(C)c4)c3n2)c(F)c1 [Example C25]
> 7.00	≤ 100	100 to 500	100 to 500	≤ 100	≤ 100		Cc1cc(-c2cnn3c(NCCN4CCOCC4)nc(Oc4cccc(F)c4F)nc23)ccc1C(=O)NC1CC1 [Example C26]
	≤ 100	≤ 100	100 to 500	100 to 500	≤ 100	> 7.00	Cc1cc(-c2cnn3c(NCC4CCOCC4)cc(N[C@@H](C(C)C)C(C)(C)O)nc23)ccc1C(=O)NC1CC1 [Example C40, (S)-N-cyclopropyl-4-(5-((2-hydroxy-2,4-dimethylpentan-3-yl)amino)-7-(((tetrahydro-2H-pyran-4-yl)methyl)amino)pyrazolo[1,5-a]pyrimidin-3-yl)-2-methylbenzamide]
	≤ 100	≤ 100	≤ 100	100 to 500	≤ 100	> 7.00	Cc1cc(-c2cnn3c(NCC4CCOCC4)cc(N[C@@H](C4CC4)C(C)(C)O)nc23)ccc1C(=O)NC1CC1 [Example C41, (S)-N-cyclopropyl-4-(5-((1-cyclopropyl-2-hydroxy-2-methylpropyl)amino)-7-(((tetrahydro-2H-pyran-4-yl)methyl)amino)pyrazolo[1,5-a]pyrimidin-3-yl)-2-methylbenzamide]

The remaining lines, values behind:

SMILES	pIC50 (human TTK; [6])	GI50 [1] [nM]	GI50 [2] [nM]	GI50 [3] [nM]	GI50 [4] [nM]	GI50 [5] [nM]	pIC50 (human TTK; [7])
Cc1cc(-c2cnn3c(NCC4CCOCC4)nc(Nc4ccccc4)nc23)ccc1C(=O)NC1CC1 [Example C10]	> 7.00	> 500	> 500	> 500	> 500	> 500	
Cc1cc(-c2cnn3c(NCC4CCOCC4)nc(Oc4ccccc4F)nc23)ccc1C(=O)NC1CC1 [Example C20]	> 7.00	≤ 100	100 to 500	100 to 500	100 to 500	≤ 100	
Cc1cc(-c2cnn3c(NCC4CCOCC4)nc(Oc4cccc(F)c4)nc23)ccc1C(=O)NC1CC1 [Example C21]	> 7.00	≤ 100	≤ 100	≤ 100	≤ 100	≤ 100	
Cc1cc(-c2cnn3c(NCC4(F)CCN(C)CC4)cc(Oc4cccc(F)c4)nc23)ccc1C(=O)NC1CC1 [Example C28]		≤ 100	≤ 100	≤ 100	≤ 100	≤ 100	> 7.00
Cc1cc(-c2cnn3c(NCCN4CCOCC4)cc(Oc4cccc(F)c4)nc23)ccc1C(=O)NC1CC1 [Example C31, N-cyclopropyl-4-(5-(3-fluorophenoxy)-7-((2-morpholinoethyl)amino)pyrazolo[1,5-a]pyrimidin-3-yl)-2-methylbenzamide]		≤ 100	≤ 100	≤ 100	≤ 100	≤ 100	> 7.00
Cc1cc(-c2cnn3c(NCCN4CCOCC4)cc(Oc4cccc(F)c4F)nc23)ccc1C(=O)NC1CC1 [Example C32, N-cyclopropyl-4-(5-(2,3-difluorophenoxy)-7-((2-morpholinoethyl)amino)pyrazolo[1,5-a]pyrimidin-3-yl)-2-methylbenzamide]		≤ 100	≤ 100	≤ 100	≤ 100	≤ 100	> 7.00
Cc1cc(-c2cnn3c(NCC4COC4)cc(N[C@H]4CCCC[C@H]4O)nc23)ccc1C(=O)NC1CC1 [Example C37, N-cyclopropyl-4-(5-(((1S,2R)-2-hydroxycyclohexyl)amino)-7-((oxetan-3-ylmethyl)amino)pyrazolo[1,5-a]pyrimidin-3-yl)-2-methylbenzamide]		≤ 100	≤ 100	≤ 100	≤ 100	≤ 100	> 7.00
Cc1cc(-c2cnn3c(NCC4CCOCC4)cc(N[C@H](CO)C(C)C)nc23)ccc1C(=O)NC1CC1 [Example C38, (S)-N-cyclopropyl-4-(5-((1-hydroxy-3-methylbutan-2-yl)amino)-7-(((tetrahydro-2H-pyran-4-yl)methyl)amino)pyrazolo[1,5-a]pyrimidin-3-yl)-2-methylbenzamide]		≤ 100	≤ 100	≤ 100	≤ 100	≤ 100	> 7.00
Cc1cc(-c2cnn3c(NCC4CCOCC4)cc(N[C@H]4CCCC[C@H]4O)nc23)ccc1C(=O)NC1CC1 [Example C39, N-cyclopropyl-4-(5-(((1S,2R)-2-hydroxycyclohexyl)amino)-7-(((tetrahydro-2H-pyran-4-yl)methyl)amino)pyrazolo[1,5-a]pyrimidin-3-yl)-2-methylbenzamide]		≤ 100	≤ 100	≤ 100	≤ 100	≤ 100	> 7.00
Cc1cc(-c2cnn3c(NCC4CC4)cc(N[C@H]4CCCC[C@H]4O)nc23)ccc1C(=O)NC1CC1 [Example C42, N-cyclopropyl-4-(7-((cyclopropylmethyl)amino)-5-(((1S,2R)-2-hydroxycyclohexyl)amino)pyrazolo[1,5-a]pyrimidin-3-yl)-2-methylbenzamide]		≤ 100	≤ 100	≤ 100	≤ 100	≤ 100	> 7.00
